Results: PubChem BioAssay (NCI)
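GI50 = concentration required for 50% inhibition of growth. TGI denotes the concentration required for complete inhibition of growth.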

Tests used:
Test in all cases: NCI-60 cell line screen, 384-well format
[1] = system: 786-0 renal
[2] = system: A498 renal
[3] = system: A549 NSCLC
[4] = system: ACHN renal
[5] = system: BT-549 breast
[6] = system: CAKI-1 renal
[7] = system: CCRF-CEM leukemia
[8] = system: COLO 205 colon
[9] = system: DU-145 prostate
[10] = system: HCC-2998 colon
[11] = system: HCT-116 colon
[12] = system: HCT-15 colon
[13] = system: HL-60(TB) leukemia
[14] = system: HOP-62 NSCLC
[15] = system: HOP-92 NSCLC
[16] = system: HT29 colon
[17] = system: IGROV1 ovarian
[18] = system: K-562 leukemia
[19] = system: KM12 colon
[20] = system: LOX IMVI melanoma
[21] = system: M14 melanoma
[22] = system: MALME-3M melanoma
[23] = system: MCF7 breast
[24] = system: MDA-MB-231 breast
[25] = system: MDA-MB-435 melanoma
[26] = system: MDA-MB-468 breast
[27] = system: MOLT-4 leukemia
[28] = system: NCI-H226 lung
[29] = system: NCI-H23 lung
[30] = system: NCI-H322M lung
[31] = system: NCI-H460 NSCLC
[32] = system: NCI-H522 lung
[33] = system: NCI/ADR-RES ovarian
[34] = system: OVCAR-3 ovarian
[35] = system: OVCAR-4 ovarian
[36] = system: OVCAR-5 ovarian
[37] = system: OVCAR-8 ovarian
[38] = system: PC-3 prostate
[39] = system: RPMI-8226 leukemia
[40] = system: RXF 393 renal
[41] = system: SF-268 CNS
[42] = system: SF-295 CNS
[43] = system: SF-539 CNS
[44] = system: SK-MEL-2 melanoma
[45] = system: SK-MEL-28 melanoma
[46] = system: SK-MEL-5 melanoma
[47] = system: SK-OV-3 ovarian
[48] = system: SN12C renal
[49] = system: SNB-19 CNS
[50] = system: SR leukemia
[51] = system: SW-620 colon
[52] = system: T-47D breast
[53] = system: TK-10 renal
[54] = system: U251 glioblastoma
[55] = system: UACC-257 melanoma
[56] = system: UACC-62 melanoma
[57] = system: UO-31 renal

Structure (SMILES): COc1ccc(-c2c(-c3ccc(C#N)c(F)c3)nc(N3CCC(N)CC3)n(C)c2=O)cc1F
- GI50 [1]: 10.6 µM
- TGI [1]: 22.5 µM
- GI50 [2]: 2.29 µM
- TGI [2]: 7.42 µM
- GI50 [3]: 16.7 µM
- TGI [3]: 30.5 µM
- GI50 [4]: 12.4 µM
- TGI [4]: 24.9 µM
- GI50 [5]: 11.6 µM
- TGI [5]: 23.9 µM
- GI50 [6]: 8.69 µM
- TGI [6]: 20.8 µM
- GI50 [7]: 13 µM
- TGI [7]: 25.8 µM
- GI50 [8]: 12 µM
- TGI [8]: 24.3 µM
- GI50 [9]: 15.1 µM
- TGI [9]: 28.9 µM
- GI50 [10]: 11 µM
- TGI [10]: 23 µM
- GI50 [11]: 6.86 µM
- TGI [11]: 19.8 µM
- GI50 [12]: 15.7 µM
- TGI [12]: 29.3 µM
- GI50 [13]: 3.89 µM
- TGI [13]: 15.1 µM
- GI50 [14]: 15.3 µM
- TGI [14]: 28.7 µM
- GI50 [15]: 6.55 µM
- TGI [15]: 19.1 µM
- GI50 [16]: 9.51 µM
- TGI [16]: 21.6 µM
- GI50 [17]: 13.9 µM
- TGI [17]: 26.9 µM
- GI50 [18]: 11.8 µM
- TGI [18]: 24.1 µM
- GI50 [19]: 13.1 µM
- TGI [19]: 25.9 µM
- GI50 [20]: 19.2 µM
- TGI [20]: 33.3 µM
- GI50 [21]: 4.89 µM
- TGI [21]: 16.6 µM
- GI50 [22]: 2.46 µM
- TGI [22]: 6.58 µM
- GI50 [23]: 3.06 µM
- TGI [23]: 9 µM
- GI50 [24]: 13.2 µM
- TGI [24]: 25.9 µM
- GI50 [25]: 13.5 µM
- TGI [25]: 26.4 µM
- GI50 [26]: 9.92 µM
- TGI [26]: 21.5 µM
- GI50 [27]: 1.78 µM
- TGI [27]: 3.17 µM
- GI50 [28]: 1.75 µM
- TGI [28]: 3.27 µM
- GI50 [29]: 11.2 µM
- TGI [29]: 28.6 µM
- GI50 [30]: 14.3 µM
- TGI [30]: 28.3 µM
- GI50 [31]: 3.41 µM
- TGI [31]: 10.9 µM
- GI50 [32]: 11.7 µM
- TGI [32]: 24 µM
- GI50 [33]: 16.5 µM
- TGI [33]: 30.3 µM
- GI50 [34]: 13.2 µM
- TGI [34]: 26 µM
- GI50 [35]: 14.3 µM
- TGI [35]: 27.6 µM
- GI50 [36]: 14.7 µM
- TGI [36]: 28.2 µM
- GI50 [37]: 14.5 µM
- TGI [37]: 27.6 µM
- GI50 [38]: 13.8 µM
- TGI [38]: 26.8 µM
- GI50 [39]: 7.53 µM
- TGI [39]: 19.6 µM
- GI50 [40]: 2.69 µM
- TGI [40]: 9.41 µM
- GI50 [41]: 14.1 µM
- TGI [41]: 27.1 µM
- GI50 [42]: 16.8 µM
- TGI [42]: 30.4 µM
- GI50 [43]: 13.8 µM
- TGI [43]: 26.8 µM
- GI50 [44]: 5.12 µM
- TGI [44]: 17.8 µM
- GI50 [45]: 10.7 µM
- TGI [45]: 22.6 µM
- GI50 [46]: 14.4 µM
- TGI [46]: 27.5 µM
- GI50 [47]: 12 µM
- TGI [47]: 24.4 µM
- GI50 [48]: 12.9 µM
- TGI [48]: 25.6 µM
- GI50 [49]: 18 µM
- TGI [49]: 32.1 µM
- GI50 [50]: 1.69 µM
- TGI [50]: 3.06 µM
- GI50 [51]: 15.3 µM
- TGI [51]: 28.7 µM
- GI50 [52]: 10.4 µM
- TGI [52]: 22.1 µM
- GI50 [53]: 14.3 µM
- TGI [53]: 27.5 µM
- GI50 [54]: 12.2 µM
- TGI [54]: 24.7 µM
- GI50 [55]: 1.71 µM
- TGI [55]: 3.16 µM
- GI50 [56]: 2.18 µM
- TGI [56]: 5.43 µM
- GI50 [57]: 13.3 µM
- TGI [57]: 26.1 µM
